Source: US20100137398A1, “USE OF HDAC INHIBITORS FOR THE TREATMENT OF GASTROINTESTINAL CANCERS” (NOVARTIS AG, priority 2007, published 2010)

What was measured:
Experiment in all cases: Monolayer growth inhibition assay (MTT/MTS)
Type in all cases: cell-based
[1] = tested on: C2Bbe-1 colon cancer cell line
Description: (§1) The MTT is a colorimetric assay to determine the cell proliferation rate. The yellow tetrazolium MTT (3-(4, 5-dimethylthiazolyl-2)-2, 5-diphenyltetrazolium bromide) is reduced, by metabolically active cells, in part by the action of dehydrogenase enzymes, to generate reducing equivalents such as NADH and NADPH. The resulting intracellular purple formazan can be solubilized and quantified by spectrophotometric means. The signals produced is directly proportional to the cell numbers. Describing the MTT assay in detail, experiments were done using six-point or 9 point drug titrations in multi-well tissue culture dishes, with outer rows left empty. Cells were suspended in complete media at densities of between 10^3 and 10^4 cell/ml, respectively, and added per well. The appropriate medium (200 μl) was then added. Twenty-four hours later, 10 μl of MTS solution, were added to one plates to determine the activity at the time of compound addition (T0). This plate was incubated at 37° for 4 hours and the optical density was measured on a Molecular Devices Thermomax at 490 nm using the Softmax program. The T0 plate served as a reference for initial activity at the beginning of the experiment.
(§2) Compound addition began 24 hours after seeding, the same time as the T0 determination. Serial dilutions at 4-fold 2-fold, 1-fold, 0.5-fold, 0.25-fold and 0.125-fold of previously determined IC50 values of each compound were made in a 96-deep well plate with the highest concentrations on the edge of the plate. Each of the six dilutions were added in triplicate and complete medium was added to the empty outer rows, without cells. The compounds were added to the plates singly or in combination with Compound III (LBH589). The plates were incubated at 37° C. for 72 hours from seeding. The MTS solution was added (as for the T0 plate) and read four hours later. In order to analyze the data, the average value of media alone (background) was subtracted from each experimental well and the triplicate values were averaged for each compound dilution. The following formulas were used to calculate percent growth.
(§3) If X>T0, % Growth=100×(X−T0)/(GC−T0))
(§4) If X<T0, % Growth=100×(X−T0)/T0)
(§5) T0=average value of T0 minus background
(§6) GC=average value of untreated cells (in triplicate) minus background X=average value, of compound treated cells (in triplicate) minus background
(§7) IC50 the concentration of LBH589 required to inhibit cell growth by 50% and LD50s the concentration required to reduce cell number (kill cells) to 50% the original innoculum were determined. The “% Growth” was plotted against compound concentration and used to calculate IC50s and LD50s, employing the user-defined spline function in Microsoft Excel.
(§8) Colon cancer cell lines were treated with DMSO vehicle control or varying concentrations of LBH589 for 3 days. Cell proliferation was measured on the day of cell plating and on the third day post-treatment. IC50 and LD50 values were calculated as described above.

[2] = tested on: CL-11 colon cancer cell line
Description: as §1, §2, §3, §4, §5, §6, §7, §8

[3] = tested on: CaCo2 colon cancer cell line
Description: as §1, §2, §3, §4, §5, §6, §7, §8

[4] = tested on: Colo205 colon cancer cell line
Description: as §1, §2, §3, §4, §5, §6, §7, §8

[5] = tested on: Colo678 colon cancer cell line
Description: as §1, §2, §3, §4, §5, §6, §7, §8

[6] = tested on: Colo741 colon cancer cell line
Description: as §1, §2, §3, §4, §5, §6, §7, §8

[7] = tested on: HCT116 colon cancer cell line
Description: as §1, §2, §3, §4, §5, §6, §7, §8

[8] = tested on: HT29 colon cancer cell line
Description: as §1, §2, §3, §4, §5, §6, §7, §8

[9] = tested on: HT55 colon cancer cell line
Description: as §1, §2, §3, §4, §5, §6, §7, §8

[10] = tested on: KM20L2 colon cancer cell line
Description: as §1, §2, §3, §4, §5, §6, §7, §8

[11] = tested on: LS174T colon cancer cell line
Description: as §1, §2, §3, §4, §5, §6, §7, §8

[12] = tested on: MDST8 colon cancer cell line
Description: as §1, §2, §3, §4, §5, §6, §7, §8

[13] = tested on: RKO colon cancer cell line
Description: as §1, §2, §3, §4, §5, §6, §7, §8

[14] = tested on: SNU-C1 colon cancer cell line
Description: as §1, §2, §3, §4, §5, §6, §7, §8

[15] = tested on: SW1116 colon cancer cell line
Description: as §1, §2, §3, §4, §5, §6, §7, §8

[16] = tested on: SW403 colon cancer cell line
Description: as §1, §2, §3, §4, §5, §6, §7, §8

[17] = tested on: SW48 colon cancer cell line
Description: as §1, §2, §3, §4, §5, §6, §7, §8

[18] = tested on: SW620 colon cancer cell line
Description: as §1, §2, §3, §4, §5, §6, §7, §8

[19] = tested on: SW948 colon cancer cell line
Description: as §1, §2, §3, §4, §5, §6, §7, §8

[20] = 3 days, concentration reducing cell number to 50% of original inoculum

**Q.** How did the “LD50” value ([1]; C2Bbe-1, 3 days, concentration reducing cell number to 50% of original inoculum) turn out when Cc1[nH]c2ccccc2c1CCNCc1ccc(/C=C/C(=O)NO)cc1 [LBH589, N-hydroxy-3-[4-[[[2-(2-methyl-1H-indol-3-yl)ethyl]-amino]methyl]phenyl]-2E-2-propenamide] was run?
**A.** 243.12 nM

**Q.** And the IC50 ([1]; Homo sapiens, C2BBe1, 72 h, C2Bbe-1, 3 days treatment)?
**A.** 27.5 nM

**Q.** And the IC50 ([2]; 72 h, CL-11, 3 days treatment)?
**A.** 3.54 nM

**Q.** And the “LD50” value ([2]; CL-11, 3 days, concentration reducing cell number to 50% of original inoculum)?
**A.** 25.92 nM

**Q.** And the “LD50” value ([3]; CaCo2, 3 days, concentration reducing cell number to 50% of original inoculum)?
**A.** 45.55 nM

**Q.** And the IC50 ([3]; Homo sapiens, Caco-2, 72 h, CaCo2, 3 days treatment)?
**A.** 13.8 nM

**Q.** And the “LD50” value ([4]; Colo205, 3 days, concentration reducing cell number to 50% of original inoculum)?
**A.** 33.52 nM

**Q.** And the IC50 ([4]; Homo sapiens, COLO 205, 72 h, Colo205, 3 days treatment)?
**A.** 14.7 nM

**Q.** What about the “LD50” value ([5]; Colo678, 3 days, concentration reducing cell number to 50% of original inoculum) of the same compound?
**A.** 45.52 nM

**Q.** And the IC50 ([5]; Homo sapiens, COLO-678, 72 h, Colo678, 3 days treatment)?
**A.** 5.6 nM

**Q.** And the “LD50” value ([6]; Colo741, 3 days, concentration reducing cell number to 50% of original inoculum)?
**A.** 33.73 nM

**Q.** And the IC50 ([6]; Homo sapiens, COLO-741, 72 h, Colo741, 3 days treatment)?
**A.** 9.22 nM

**Q.** What about the “LD50” value ([7]; HCT116, 3 days, concentration reducing cell number to 50% of original inoculum) of the same compound?
**A.** 51.72 nM

**Q.** And the IC50 ([7]; Homo sapiens, HCT-116, 72 h, HCT116, 3 days treatment)?
**A.** 7.11 nM

**Q.** And the “LD50” value ([8]; HT29, 3 days, concentration reducing cell number to 50% of original inoculum)?
**A.** 70.23 nM

**Q.** What about the IC50 ([8]; Homo sapiens, HT-29, 72 h, HT29, 3 days treatment) of the same compound?
**A.** 2.83 nM

**Q.** What about the “LD50” value ([9]; HT55, 3 days, concentration reducing cell number to 50% of original inoculum) of the same compound?
**A.** 334.52 nM

**Q.** What about the IC50 ([9]; Homo sapiens, 72 h, HT55, 3 days treatment) of the same compound?
**A.** 8.21 nM

**Q.** What about the IC50 ([10]; Homo sapiens, KM-20L2, 72 h, KM20L2, 3 days treatment) of the same compound?
**A.** 14.6 nM

**Q.** And the “LD50” value ([10]; KM20L2, 3 days, concentration reducing cell number to 50% of original inoculum)?
**A.** 16.95 nM

**Q.** What about the “LD50” value [11, 20] of the same compound?
**A.** 87.41 nM

**Q.** And the IC50 ([11]; Homo sapiens, 72 h, 3 days treatment)?
**A.** 16.8 nM

**Q.** And the IC50 ([12]; 72 h, MDST8, 3 days treatment)?
**A.** 4.87 nM

**Q.** And the “LD50” value ([12]; MDST8, 3 days, concentration reducing cell number to 50% of original inoculum)?
**A.** 48.44 nM

**Q.** What about the IC50 ([13]; 72 h, 3 days treatment) of the same compound?
**A.** 5.57 nM

**Q.** And the “LD50” value [13, 20]?
**A.** 2346.13 nM

**Q.** And the IC50 ([14]; Homo sapiens, 72 h, SNU-C1, 3 days treatment)?
**A.** 4.51 nM

**Q.** And the “LD50” value ([14]; SNU-C1, 3 days, concentration reducing cell number to 50% of original inoculum)?
**A.** 26.07 nM

**Q.** And the IC50 ([15]; Homo sapiens, SW 1116, 72 h, SW1116, 3 days treatment)?
**A.** 2.28 nM

**Q.** What about the “LD50” value ([15]; SW1116, 3 days, concentration reducing cell number to 50% of original inoculum) of the same compound?
**A.** 26.93 nM

**Q.** What about the IC50 ([16]; Homo sapiens, SW-403, 72 h, SW403, 3 days treatment) of the same compound?
**A.** 2.03 nM

**Q.** And the “LD50” value ([16]; SW403, 3 days, concentration reducing cell number to 50% of original inoculum)?
**A.** 9.84 nM

**Q.** And the IC50 ([17]; Homo sapiens, 72 h, SW48, 3 days treatment)?
**A.** 1.29 nM

**Q.** And the “LD50” value ([17]; SW48, 3 days, concentration reducing cell number to 50% of original inoculum)?
**A.** 13.09 nM

**Q.** And the IC50 ([18]; Homo sapiens, SW-620, 72 h, SW620, 3 days treatment)?
**A.** 0.79 nM

**Q.** And the “LD50” value ([18]; SW620, 3 days, concentration reducing cell number to 50% of original inoculum)?
**A.** 1.70 nM

**Q.** And the IC50 ([19]; Homo sapiens, 72 h, SW948, 3 days treatment)?
**A.** 5.06 nM

**Q.** And the “LD50” value ([19]; SW948, 3 days, concentration reducing cell number to 50% of original inoculum)?
**A.** 34.92 nM
